In patent publication US12233073B2, “Skin care formulations and skin cancer treatment” (Regents of the University of Minnesota, priority 2017, dated 2025):
Where two headings read alike, the source gives them in different places.

Assays:
Ki-67 = Ki-67 immunohistological staining of skin of mice treated with anti-sUV agents; type: in vivo, mouse; details: solar UV-exposed groups
Excerpt: FIG. 41 is a photograph comparing Ki-67 immunohistological-stained tissue samples of mice exposed to solar ultraviolet and treated with anti-sUV agents and mice unexposed to solar ultraviolet.

[1] = test system: SSL-induced skin tumors in SKH-1 hairless mice
Procedure: The effectiveness of different candidate compounds in preventing sUV-induced cancer was evaluated. SKH-1 hairless mice (Charles River, Burlington, Massachusetts) were treated with formulations including one or more candidate compounds and exposed to SSL (solar simulated light). Female mice aged 5-6 weeks at the beginning of the study were used. The mice were exposed to SSL three times a week for 15 weeks from the beginning of the study. At week 1, the SSL dose included 37 kJ/m^2 UVA and 1.8 kJ/m^2 UVB three times per week. […] At week 6, the dose included 60 kJ/m^2 UVA and 2.9 kJ/m^2 UVB and this dose was maintained until week 15 at which time SSL exposure was stopped. Each mouse received a topical application (on the dorsal skin surface posterior to the base of the neck and anterior to the base of the tail) of one or more candidate compounds in a base cream one hour before SSL exposure. 15 weeks onwards, the mice were no longer exposed to SSL but the topical application of cream with sunscreen compounds was continued until 30 weeks. Control mice received topical application of cream with sunscreen compounds but no SSL.
Tumors were counted by sight. The dimensions of each tumor were measured using a digital caliper. Tumor volume (mm^3) was determined as (length×width^2)×0.52, where the length and width were measured in mm. […] Average or total tumor volumes were compared between vehicle (cream)-treated mice exposed to SSL and compound in cream-treated mice exposed to SSL.

[2] = test system: skin of SKH-1 hairless mice; test: H&E staining of skin of mice treated with anti-sUV agents; type: in vivo, mouse; details: solar UV-exposed groups G13-G24
Excerpt: FIG. 40 is a photograph comparing H&E (hematoxylin and eosin) stained tissue sample of mice exposed to solar ultraviolet and treated with anti-sUV agents and mice unexposed to solar ultraviolet. H&E staining can show skin damage (see TABLE 5 for group identification). […] None of the compounds in the absence of solar UV caused any damage and none had any adverse effect on skin thickness. G11 and G12 are the positive controls, being groups treated with solar UV without or with vehicle (cream).

[3] = following one hour of exposure to sunlight; cited from earlier work
[4] = SSL-exposed, compound in cream, percent per TABLE 5
[5] = SSL-exposed, compound in cream, percent per TABLE 5, 15 mice
[6] = female, SKH-1 hairless, mouse, in vivo, 30 weeks
[7] = no SSL exposure, compound in cream, percent per TABLE 5

Compound: COc1ccc(C(=O)CC(=O)c2ccc(C(C)(C)C)cc2)cc1 [Avobenzone]
- Ki-67 staining: abnormal cell proliferation (Ki-67): extensive abnormal proliferation
- % Effective Protection (% reduction in tumor volume vs SSL with cream only) [1, 4]: 72.8%
- % Mice with tumor [1, 5]: 93.3%
- % Mortality [1, 5]: 6.7%
- Average volume of tumors [1, 5]: 46.1 mm^3
- Avg. no. of tumors [1, 5]: 3.7
- Number of dead mice [1, 5]: 1
- Total no. of tumors [1, 5]: 55
- Total volume of tumors [1, 5]: 691.5 mm^3
- % Mice with tumor [1, 6]: 0%
- % Mortality/Number of dead mice [1, 7]: 0
- Total/Average volume of tumors [1, 7]: 0
- Total/Avg. no. of tumors [1, 7]: 0
- H&E staining: epidermal thickening and skin damage [2]: epidermal thickening and skin damage
- change in UV absorbance [3]: approximately 36%

Compound: CC1CC(OC(=O)c2ccccc2O)CC(C)(C)C1 (centres unmarked) [Homosalate]
- Ki-67 staining: abnormal cell proliferation (Ki-67): extensive abnormal proliferation
- % Effective Protection (% reduction in tumor volume vs SSL with cream only) [1, 4]: 83.6%
- % Mice with tumor [1, 5]: 80%
- % Mortality [1, 5]: 6.7%
- Average volume of tumors [1, 5]: 27.7 mm^3
- Avg. no. of tumors [1, 5]: 2.6
- Number of dead mice [1, 5]: 1
- Total no. of tumors [1, 5]: 39
- Total volume of tumors [1, 5]: 415.7 mm^3
- % Mice with tumor [1, 6]: 0%
- % Mortality/Number of dead mice [1, 7]: 0
- Total/Average volume of tumors [1, 7]: 0
- Total/Avg. no. of tumors [1, 7]: 0
- H&E staining: epidermal thickening and skin damage [2]: intense damage

Compound: CCCCC(CC)COC(=O)C=Cc1ccc(OC)cc1 (centres unmarked) [Octinoxate]
- % Effective Protection (% reduction in tumor volume vs SSL with cream only) [1, 4]: 93.9%
- % Mice with tumor [1, 5]: 80%
- % Mortality [1, 5]: 13.3%
- Average volume of tumors [1, 5]: 10.4 mm^3
- Avg. no. of tumors [1, 5]: 1.4
- Number of dead mice [1, 5]: 2
- Total no. of tumors [1, 5]: 21
- Total volume of tumors [1, 5]: 156.02 mm^3
- % Mice with tumor [1, 6]: 0%
- % Mortality/Number of dead mice [1, 7]: 0
- Total/Average volume of tumors [1, 7]: 0
- Total/Avg. no. of tumors [1, 7]: 0
- H&E staining: epidermal thickening and skin damage [2]: epidermal thickening but less damage

Compound: CCCCC(CC)COC(=O)c1ccccc1O (centres unmarked) [Octisalate]
- % Effective Protection (% reduction in tumor volume vs SSL with cream only) [1, 4]: 70.1%
- % Mice with tumor [1, 5]: 100%
- % Mortality [1, 5]: 66.7%
- Average volume of tumors [1, 5]: 50.6 mm^3
- Avg. no. of tumors [1, 5]: 2.6
- Number of dead mice [1, 5]: 10
- Total no. of tumors [1, 5]: 39
- Total volume of tumors [1, 5]: 758.4 mm^3
- % Mice with tumor [1, 6]: 0%
- % Mortality/Number of dead mice [1, 7]: 0
- Total/Average volume of tumors [1, 7]: 0
- Total/Avg. no. of tumors [1, 7]: 0
- H&E staining: epidermal thickening and skin damage [2]: epidermal thickening and skin damage

Compound: CCCCC(CC)COC(=O)C(C#N)=C(c1ccccc1)c1ccccc1 (centres unmarked) [Octocrylene]
- % Effective Protection (% reduction in tumor volume vs SSL with cream only) [1, 4]: 90.3%
- % Mice with tumor [1, 5]: 66.7%
- % Mortality [1, 5]: 0/0%
- Average volume of tumors [1, 5]: 16.5 mm^3
- Avg. no. of tumors [1, 5]: 1.7
- Number of dead mice [1, 5]: 0/0
- Total no. of tumors [1, 5]: 25
- Total volume of tumors [1, 5]: 246.7 mm^3
- % Mice with tumor [1, 6]: 0%
- % Mortality/Number of dead mice [1, 7]: 0
- Total/Average volume of tumors [1, 7]: 0
- Total/Avg. no. of tumors [1, 7]: 0
- H&E staining: epidermal thickening and skin damage [2]: epidermal thickening and skin damage

Compound: COc1ccc(C(=O)c2ccccc2)c(O)c1 [Oxybenzone]
- % Effective Protection (% reduction in tumor volume vs SSL with cream only) [1, 4]: 91.2%
- % Mice with tumor [1, 5]: 86.7%
- % Mortality [1, 5]: 6.7%
- Average volume of tumors [1, 5]: 14.3 mm^3
- Avg. no. of tumors [1, 5]: 2.3
- Number of dead mice [1, 5]: 1
- Total no. of tumors [1, 5]: 35
- Total volume of tumors [1, 5]: 213.7 mm^3
- % Mice with tumor [1, 6]: 0%
- % Mortality/Number of dead mice [1, 7]: 0
- Total/Average volume of tumors [1, 7]: 0
- Total/Avg. no. of tumors [1, 7]: 0
- H&E staining: epidermal thickening and skin damage [2]: epidermal thickening but less damage

Compound: [O]=[Zn] [Zinc oxide]
- Ki-67 staining: abnormal cell proliferation (Ki-67): least amount of abnormal proliferation
- % Mice with tumor [1, 5]: 6.7%
- % Mortality [1, 5]: 0/0%
- Average volume of tumors [1, 5]: 0.8 mm^3
- Avg. no. of tumors [1, 5]: 0.13
- Number of dead mice [1, 5]: 0/0
- Total no. of tumors [1, 5]: 2
- Total volume of tumors [1, 5]: 11.2 mm^3
- % Mortality/Number of dead mice [1, 7]: 0
- Total/Average volume of tumors [1, 7]: 0
- Total/Avg. no. of tumors [1, 7]: 0
- % Mice with tumor ([1]; no SSL exposure, compound in cream, percent per TABLE 5, 30 weeks): 0%
- H&E staining: epidermal thickening and skin damage [2]: most protected

Compound: Titanium dioxide
- % Effective Protection (% reduction in tumor volume vs SSL with cream only) [1, 4]: 89.2%
- % Mice with tumor [1, 5]: 100%
- % Mortality [1, 5]: 13.3%
- Average volume of tumors [1, 5]: 18.4 mm^3
- Avg. no. of tumors [1, 5]: 2.6
- Number of dead mice [1, 5]: 2
- Total no. of tumors [1, 5]: 39
- Total volume of tumors [1, 5]: 275.6 mm^3
- % Mice with tumor ([1]; mouse, in vivo): 0%
- % Mortality/Number of dead mice [1, 7]: 0
- Total/Average volume of tumors [1, 7]: 0
- Total/Avg. no. of tumors [1, 7]: 0
- H&E staining: epidermal thickening and skin damage [2]: epidermal thickening and skin damage
